Results on 1 compound are retold here after patent publication US5696239A (The Dow Chemical Company, priority 1995, dated 1997).

A short description of data set [1]: Percent complex determination, yttrium complexes (Sephadex C-25 cation exchange). It is filed as physicochemical. The note with it: ligand/metal 10:1, pH 7.4. As to the method: Complexes were made by preparing a 0.0003M yttrium solution in water. (YCl3.6H2 O, 303.26 g/mole; Y(OAc)3, 12.1% H2 O). Radioactive YCl3 (Oakridge National Laboratories) was added to give the desired number of counts. Ten μl of ligand solution (at 0.03M) were added to 990 μl of the Y solution, giving a ligand-to-metal ratio of 1:1. (Ten times the amount of ligand solution was used for a 10:1 ligand to metal ratio.) The pH was then adjusted to 7.4 using microliter quantities of hydrochloric acid or sodium hydroxide. The solution was then tested for the amount of complexed yttrium using the cation exchange method given below.
A disposable 10 ml plastic (Biorad) column was filled with 1 to 2 ml of water-swelled Sephadex™ C-25 cation exchange resin. The water was pressure eluted to the top of the resin. Fifteen μl of the complex (or more if counts were low) were added to the top of the resin. This was followed by 2 ml of 4:1 (V:V) isotonic saline:conc. ammonium hydroxide solution as an eluent which was allowed to drip into a counting tube. This was also pressure eluted to the top of the resin. An additional 2 ml of the eluent were added and the column pressure eluted to remove all liquid. The dried resin was then placed in a third counting tube and the three tubes counted on a NaI well counter using a Canberra multichannel analyzer linked to a computer. The percent complex was determined by dividing the number of counts in the two elutions by the total counts in the elutions plus the column, all times 100. By this method, uncomplexed yttrium was retained on the column.

A short description of data set [2]: Biodistribution in a rabbit. It is filed as in vivo. The settings on record: Y-90, ligand 10 times molar excess. The protocol: Muscle was calculated using 46% of body weight.
A rabbit was injected in the same manner as the rats with a formulation having Y-90 with Y at 3×10^-4 M and the ligand of Example 10 at 10 times molar excess.

Data set [3] relates to osteosarcoma in the right proximal humerus. Briefly: Treatment of a dog with osteosarcoma. It is filed as in vivo. The settings on record: Sm-153 complex, ligand 300 times molar excess; I.V. 0.95 mCi Sm-153 per Kg; one week after injection. As to the method:
A dog was presented with an osteosarcoma in the right proximal humerus and walked with significant lameness. A complex was prepared using the ligand of Example 10 with a Sm-153 solution. The concentration of Sm was 3×10^-4 M and the ligand was used with a 300 times molar excess. The specific activity of the Sm-153 was 30 mCi/ml. The dog was given an I.V. injection of this complex containing 0.95 mCi of Sm-153 per Kg body weight of the dog.

Data set [4] in a line: In vivo biodistribution of chelates in rats (% dose in organs). The settings on record: rat; for % Injected Dose in Liver: 2 hours after i.v. injection; for % dose in the spleen / % dose in the bone / % dose in the blood / % dose in the muscle: 2 hours; for % dose in the bone: 25 times % dose in a femur; for % dose in the blood: blood 6.5% of animal weight; for % dose in the muscle: muscle 46% of body weight.
Procedure: Also samarium was injected as samarium chloride in unchelated form.
These animals were placed in cages and fed water and food ad libitum. The animals were acclimated for at least five days before use. Prior to injection of complex, the animals were placed under a heat lamp (15 to 30 minutes) to dilate the tail vein. Then, the animal was placed in a restraining cage, the tail cleaned with an alcohol swipe, and the animal injected (50 to 200 μl) via the tail vein. After injection, the animal was placed in another cage for two hours after which time the animal was sacrificed by cervical dislocation. The animal was then dissected, the parts rinsed with deionized H2 O , patted dry, and weighed into a tared counting vial. Whatever size of injection was made, at least three standards of the same material were prepared and counted with the animal parts.
Complexes were prepared by mixing a solution of ligand and metal then adjusting the pH to 7-8. The amount of metal that was complexed to ligand was determined by cation exchange chromatography. Free metal was retained by the resin, metal in the form of a complex was not.
One-hundred μl of the complexes were injected into the tail vein of three Sprague Dawley rats. Two hours after injection, the rats were killed by cervical dislocation and samples of tissues were taken. The tissues were weighed and the amount of radiation in each tissue determined by measuring the number of counts using a NaI well counter and comparing them to standards. […] The amount in bone was 25 times the % dose in a femur. The examples below differ in the ligand, amount of ligand and amount of metal used. Non-radioactive metal was used to obtain the desired ligand to metal ratios and tracer radioactive metal was used to obtain the biodistribution.

The mark [5] stands for this setting: Ho-166, ligand 300 times molar excess.
The mark [6] stands for this setting: Sm-153, ligand 10 times molar excess.
The mark [7] stands for this setting: Sm-153, ligand 300 times molar excess.

For the compound `CC(=O)Nc1cc(C(C(=O)O)N(CC(=O)O)CC(=O)O)c(O)c(C(C(=O)O)N(CC(=O)O)CC(=O)O)c1` (centres unmarked) [Example 10, 2,6-BIS{[BIS(CARBOXYMETHYL)-AMINO](CARBOXY)METHYL}-4-(ACETAMIDO)PHENOL], the “% Complex (10:1), Y” value in data set [1] came out at 98%. In data set [2], this compound yielded an activity in blood of 0.68%, an activity in bone of 59%, an activity in liver of 1.1% and an activity in muscle of 1.5%. The activity in spleen in data set [2] is 0.19%. Moreover, the “dog's gait” value in data set [3] is given as “noticeably improved”. Moreover, the “% Injected Dose in Liver” value in data set [4] (Ho complex, ligand 300 times molar excess) worked out at 0.26%. Also, in data set [4] (setting [5]), the “% dose in the spleen” value stood at 0.007%, the “% dose in the bone” value came to 52.9%, the “% dose in the blood” value was determined as 0.09% and the “% dose in the muscle” value came to 1.1%. For the same compound, the “% Injected Dose in Liver” value in data set [4] (Sm complex, ligand 300 times molar excess) is reported as 0.12%. Besides, in data set [4] (Sm complex, ligand/metal 10:1), the “% Injected Dose in Liver” value is 1.3%. In data set [4] (setting [6]), the “% dose in the spleen” value is on record as 0.01%, the “% dose in the bone” value came out at 48.5%, the “% dose in the blood” value was found to be 0.18% and the “% dose in the muscle” value was 0.73%. In data set [4] (setting [7]), the “% dose in the spleen” value is 0.005%, the “% dose in the bone” value was determined as 52.7%, the “% dose in the blood” value was determined as 0.05% and the “% dose in the muscle” value is listed as 0.23%. Moreover, in data set [4] (Y complex, ligand/metal 10:1), the “% Injected Dose in Liver” value is recorded as 0.39%.
